Laboratory results: PubChem BioAssay AID651980 (The Scripps Research Institute Molecular Screening Center, 2013)
Activity calls are given as the source filed them. How the calls were made is not given here.

What was measured:
Experiment in all cases: PubChem AID 651980
[1] = test system: AADACL1; conditions: HEK293T in situ, ABPP-SILAC LC-MS/MS, NHU5 probe, at 5 µM, hits give low values
[2] = test system: ABHD10; conditions: HEK293T in situ, ABPP-SILAC LC-MS/MS, NHU5 probe, at 5 µM, hits give low values
[3] = test system: ABHD12; conditions: HEK293T in situ, ABPP-SILAC LC-MS/MS, NHU5 probe, at 5 µM, hits give low values
[4] = test system: ABHD6; conditions: HEK293T in situ, ABPP-SILAC LC-MS/MS, NHU5 probe, at 5 µM, hits give low values
[5] = molecular target: Acyl-protein thioesterase 1 (Homo sapiens) (UniProt O75608); conditions: HEK293T in situ, ABPP-SILAC LC-MS/MS, NHU5 probe; LYPLA1; at 5 µM; hits give low values
[6] = molecular target: Acyl-protein thioesterase 2 (Homo sapiens) (UniProt O95372); conditions: HEK293T in situ, ABPP-SILAC LC-MS/MS, NHU5 probe; LYPLA2; at 5 µM; hits give low values
[7] = molecular target: Acylamino-acid-releasing enzyme (Homo sapiens) (UniProt P13798); conditions: HEK293T in situ, ABPP-SILAC LC-MS/MS, NHU5 probe; APEH; at 5 µM; hits give low values
[8] = test system: CTSA; conditions: HEK293T in situ, ABPP-SILAC LC-MS/MS, NHU5 probe, at 5 µM, hits give low values
[9] = molecular target: Dipeptidyl peptidase 9 (Homo sapiens) (UniProt Q86TI2); conditions: HEK293T in situ, ABPP-SILAC LC-MS/MS, NHU5 probe; DPP9; at 5 µM; hits give low values
[10] = test system: ESD; conditions: HEK293T in situ, ABPP-SILAC LC-MS/MS, NHU5 probe, at 5 µM, hits give low values
[11] = molecular target: Fatty acid synthase (Homo sapiens) (UniProt P49327); conditions: HEK293T in situ, ABPP-SILAC LC-MS/MS, NHU5 probe; FASN; at 5 µM; hits give low values
[12] = test system: LYPLAL1; conditions: HEK293T in situ, ABPP-SILAC LC-MS/MS, NHU5 probe, at 5 µM, hits give low values
[13] = test system: MGLL; conditions: HEK293T in situ, ABPP-SILAC LC-MS/MS, NHU5 probe, at 5 µM, hits give low values
[14] = test system: PLA2G4A; conditions: HEK293T in situ, ABPP-SILAC LC-MS/MS, NHU5 probe, at 5 µM, hits give low values
[15] = test system: PNPLA6; conditions: HEK293T in situ, ABPP-SILAC LC-MS/MS, NHU5 probe, at 5 µM, hits give low values
[16] = test system: PREP; conditions: HEK293T in situ, ABPP-SILAC LC-MS/MS, NHU5 probe, at 5 µM, hits give low values
[17] = molecular target: Protein phosphatase methylesterase 1 (Homo sapiens) (UniProt Q9Y570); conditions: HEK293T in situ, ABPP-SILAC LC-MS/MS, NHU5 probe; PPME1; at 5 µM; hits give low values
[18] = test system: TPP2; conditions: HEK293T in situ, ABPP-SILAC LC-MS/MS, NHU5 probe, at 5 µM, hits give low values

Sequence of Fatty acid synthase (Homo sapiens) (P49327 whole entry, looked up): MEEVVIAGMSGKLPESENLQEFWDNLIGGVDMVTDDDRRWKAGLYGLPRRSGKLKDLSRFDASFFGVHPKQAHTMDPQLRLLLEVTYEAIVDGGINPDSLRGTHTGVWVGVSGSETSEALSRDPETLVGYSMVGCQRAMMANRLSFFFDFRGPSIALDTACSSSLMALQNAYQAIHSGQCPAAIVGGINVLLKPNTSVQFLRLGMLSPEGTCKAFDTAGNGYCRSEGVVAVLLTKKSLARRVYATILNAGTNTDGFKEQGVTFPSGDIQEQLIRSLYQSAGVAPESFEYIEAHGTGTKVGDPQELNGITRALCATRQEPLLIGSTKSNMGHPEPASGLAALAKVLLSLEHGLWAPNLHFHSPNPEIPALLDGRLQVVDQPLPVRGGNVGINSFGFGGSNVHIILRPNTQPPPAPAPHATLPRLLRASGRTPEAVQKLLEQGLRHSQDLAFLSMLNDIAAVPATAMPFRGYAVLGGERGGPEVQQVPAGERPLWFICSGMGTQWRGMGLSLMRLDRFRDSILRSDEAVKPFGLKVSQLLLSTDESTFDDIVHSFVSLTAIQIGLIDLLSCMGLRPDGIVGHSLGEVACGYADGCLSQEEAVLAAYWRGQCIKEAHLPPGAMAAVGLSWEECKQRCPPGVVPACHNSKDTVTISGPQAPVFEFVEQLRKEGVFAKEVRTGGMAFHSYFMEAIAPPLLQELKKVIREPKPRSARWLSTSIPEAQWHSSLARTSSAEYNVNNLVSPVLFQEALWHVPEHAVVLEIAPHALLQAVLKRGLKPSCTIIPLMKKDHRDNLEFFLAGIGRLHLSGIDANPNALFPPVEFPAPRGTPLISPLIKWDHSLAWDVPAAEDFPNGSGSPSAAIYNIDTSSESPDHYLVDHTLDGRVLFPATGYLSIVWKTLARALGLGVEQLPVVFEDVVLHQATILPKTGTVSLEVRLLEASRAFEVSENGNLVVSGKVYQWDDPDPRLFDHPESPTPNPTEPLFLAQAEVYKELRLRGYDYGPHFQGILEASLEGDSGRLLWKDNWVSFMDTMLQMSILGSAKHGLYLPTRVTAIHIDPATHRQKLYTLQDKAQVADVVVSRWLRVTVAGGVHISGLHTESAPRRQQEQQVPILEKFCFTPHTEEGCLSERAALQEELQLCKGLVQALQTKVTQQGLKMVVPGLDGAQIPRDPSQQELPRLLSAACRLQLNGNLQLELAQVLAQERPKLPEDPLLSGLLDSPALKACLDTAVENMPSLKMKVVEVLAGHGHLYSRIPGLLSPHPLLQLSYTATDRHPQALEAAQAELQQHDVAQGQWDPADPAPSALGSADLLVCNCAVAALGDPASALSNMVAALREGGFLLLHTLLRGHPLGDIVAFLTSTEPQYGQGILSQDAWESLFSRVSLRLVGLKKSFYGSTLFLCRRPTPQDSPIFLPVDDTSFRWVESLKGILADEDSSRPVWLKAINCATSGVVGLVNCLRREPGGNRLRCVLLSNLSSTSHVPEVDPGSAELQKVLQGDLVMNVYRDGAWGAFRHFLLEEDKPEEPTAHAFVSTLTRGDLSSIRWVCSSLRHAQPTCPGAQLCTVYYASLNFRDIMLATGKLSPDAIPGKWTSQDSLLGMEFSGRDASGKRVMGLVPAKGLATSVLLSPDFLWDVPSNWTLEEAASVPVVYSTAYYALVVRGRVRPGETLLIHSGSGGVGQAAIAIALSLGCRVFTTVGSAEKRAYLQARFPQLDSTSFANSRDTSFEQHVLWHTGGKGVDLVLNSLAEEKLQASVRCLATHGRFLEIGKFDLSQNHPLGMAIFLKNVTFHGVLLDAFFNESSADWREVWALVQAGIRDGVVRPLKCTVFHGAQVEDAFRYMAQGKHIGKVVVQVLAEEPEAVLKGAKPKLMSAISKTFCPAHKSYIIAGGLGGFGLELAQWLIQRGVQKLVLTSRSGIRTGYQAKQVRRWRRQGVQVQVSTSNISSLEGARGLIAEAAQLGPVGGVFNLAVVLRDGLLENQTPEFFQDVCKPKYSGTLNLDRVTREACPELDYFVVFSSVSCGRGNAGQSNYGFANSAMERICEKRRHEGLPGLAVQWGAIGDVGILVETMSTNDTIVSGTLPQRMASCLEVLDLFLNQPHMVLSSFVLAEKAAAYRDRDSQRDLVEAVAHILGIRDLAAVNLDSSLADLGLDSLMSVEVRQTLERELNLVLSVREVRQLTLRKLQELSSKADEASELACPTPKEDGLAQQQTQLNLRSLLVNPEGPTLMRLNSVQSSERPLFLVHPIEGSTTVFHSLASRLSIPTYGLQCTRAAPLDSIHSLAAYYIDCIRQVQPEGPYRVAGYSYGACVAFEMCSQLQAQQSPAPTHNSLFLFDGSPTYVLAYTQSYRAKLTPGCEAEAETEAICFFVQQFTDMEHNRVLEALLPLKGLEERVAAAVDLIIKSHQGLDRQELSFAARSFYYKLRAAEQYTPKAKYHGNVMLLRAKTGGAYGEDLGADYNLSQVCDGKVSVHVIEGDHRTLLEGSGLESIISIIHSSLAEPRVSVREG
Sequence of Acylamino-acid-releasing enzyme (Homo sapiens) (P13798 whole entry, looked up): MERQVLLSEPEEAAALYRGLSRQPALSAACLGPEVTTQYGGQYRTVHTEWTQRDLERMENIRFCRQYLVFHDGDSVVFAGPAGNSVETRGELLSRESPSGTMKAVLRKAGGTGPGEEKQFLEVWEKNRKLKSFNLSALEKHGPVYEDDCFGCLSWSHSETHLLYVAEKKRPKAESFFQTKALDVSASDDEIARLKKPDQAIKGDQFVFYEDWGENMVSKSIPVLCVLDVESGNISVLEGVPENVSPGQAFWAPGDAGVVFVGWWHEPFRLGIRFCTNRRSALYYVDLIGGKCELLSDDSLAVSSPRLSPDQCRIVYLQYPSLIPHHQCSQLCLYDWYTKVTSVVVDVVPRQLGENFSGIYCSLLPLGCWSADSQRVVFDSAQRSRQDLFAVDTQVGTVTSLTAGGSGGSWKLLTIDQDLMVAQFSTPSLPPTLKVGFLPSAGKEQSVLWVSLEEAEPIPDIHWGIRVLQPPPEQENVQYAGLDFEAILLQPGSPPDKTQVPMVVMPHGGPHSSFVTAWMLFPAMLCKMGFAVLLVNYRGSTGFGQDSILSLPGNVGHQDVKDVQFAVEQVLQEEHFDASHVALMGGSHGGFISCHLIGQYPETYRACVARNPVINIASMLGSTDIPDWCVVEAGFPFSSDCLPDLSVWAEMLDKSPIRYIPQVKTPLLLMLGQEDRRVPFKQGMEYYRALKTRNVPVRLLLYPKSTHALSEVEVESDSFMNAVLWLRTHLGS
Sequence of Dipeptidyl peptidase 9 (Homo sapiens) (Q86TI2 whole entry, looked up): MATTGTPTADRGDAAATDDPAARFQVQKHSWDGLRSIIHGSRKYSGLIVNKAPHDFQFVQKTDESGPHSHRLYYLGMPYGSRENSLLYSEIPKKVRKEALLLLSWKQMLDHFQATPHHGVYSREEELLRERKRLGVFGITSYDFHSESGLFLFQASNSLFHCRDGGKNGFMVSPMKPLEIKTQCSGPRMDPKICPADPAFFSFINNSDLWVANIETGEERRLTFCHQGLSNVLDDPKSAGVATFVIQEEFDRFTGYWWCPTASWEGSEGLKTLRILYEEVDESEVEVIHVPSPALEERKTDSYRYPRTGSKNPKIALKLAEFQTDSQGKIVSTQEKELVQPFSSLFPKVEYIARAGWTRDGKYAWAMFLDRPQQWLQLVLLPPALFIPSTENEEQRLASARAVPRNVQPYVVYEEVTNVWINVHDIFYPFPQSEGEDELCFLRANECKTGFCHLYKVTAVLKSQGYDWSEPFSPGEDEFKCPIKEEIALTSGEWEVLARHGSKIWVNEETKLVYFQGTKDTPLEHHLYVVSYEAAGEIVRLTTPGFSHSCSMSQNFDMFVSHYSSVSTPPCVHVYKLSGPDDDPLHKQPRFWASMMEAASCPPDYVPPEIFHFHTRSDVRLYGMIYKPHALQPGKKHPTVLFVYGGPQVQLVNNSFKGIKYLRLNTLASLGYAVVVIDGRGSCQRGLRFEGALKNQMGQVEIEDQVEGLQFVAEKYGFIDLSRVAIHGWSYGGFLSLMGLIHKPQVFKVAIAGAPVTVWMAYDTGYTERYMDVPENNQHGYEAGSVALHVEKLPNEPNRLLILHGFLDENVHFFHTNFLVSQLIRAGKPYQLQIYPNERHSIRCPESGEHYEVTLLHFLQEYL
Sequence of Acyl-protein thioesterase 2 (Homo sapiens) (O95372 whole entry, looked up): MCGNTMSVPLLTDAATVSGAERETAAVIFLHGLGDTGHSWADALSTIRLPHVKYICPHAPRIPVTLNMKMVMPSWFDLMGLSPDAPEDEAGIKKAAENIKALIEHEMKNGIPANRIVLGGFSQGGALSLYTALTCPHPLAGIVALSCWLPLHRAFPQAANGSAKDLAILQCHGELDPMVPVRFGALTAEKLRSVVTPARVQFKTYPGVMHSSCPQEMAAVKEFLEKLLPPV
Sequence of Acyl-protein thioesterase 1 (Homo sapiens) (O75608 whole entry, looked up): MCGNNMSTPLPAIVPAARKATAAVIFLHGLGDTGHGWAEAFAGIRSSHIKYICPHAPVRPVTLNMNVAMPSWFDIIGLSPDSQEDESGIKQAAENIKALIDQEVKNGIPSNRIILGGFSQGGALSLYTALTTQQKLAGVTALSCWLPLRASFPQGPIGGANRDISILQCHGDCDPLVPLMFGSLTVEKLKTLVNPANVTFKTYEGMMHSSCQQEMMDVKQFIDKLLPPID
Sequence of Protein phosphatase methylesterase 1 (Homo sapiens) (Q9Y570 whole entry, looked up): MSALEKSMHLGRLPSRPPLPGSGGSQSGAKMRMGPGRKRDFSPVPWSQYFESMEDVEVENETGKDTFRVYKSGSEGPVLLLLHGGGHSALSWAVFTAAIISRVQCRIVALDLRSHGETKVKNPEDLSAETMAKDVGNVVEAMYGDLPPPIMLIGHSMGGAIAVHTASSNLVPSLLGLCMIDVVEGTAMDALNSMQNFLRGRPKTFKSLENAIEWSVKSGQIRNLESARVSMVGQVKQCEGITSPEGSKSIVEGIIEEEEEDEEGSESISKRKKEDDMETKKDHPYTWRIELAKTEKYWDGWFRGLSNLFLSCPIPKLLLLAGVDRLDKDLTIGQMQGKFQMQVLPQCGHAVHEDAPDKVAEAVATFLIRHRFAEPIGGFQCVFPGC

Q: With `COc1ccc(N2CCN(C(=O)c3cc4c(s3)-c3ccccc3S(=O)(=O)C4)CC2)cc1` as the molecule, how does the remaining activity ratio (inhibitor/DMSO) [1] read?
A: The remaining activity ratio (inhibitor/DMSO) was 1.14 (inactive).

Q: What about the remaining activity ratio (inhibitor/DMSO) [2] of the same molecule?
A: The remaining activity ratio (inhibitor/DMSO) was 1.21 (inactive).

Q: And the remaining activity ratio (inhibitor/DMSO) [3]?
A: The remaining activity ratio (inhibitor/DMSO) was 1.24 (inactive).

Q: What about the remaining activity ratio (inhibitor/DMSO) [4] of the same molecule?
A: Its remaining activity ratio (inhibitor/DMSO) is 1.37 (inactive).

Q: And the remaining activity ratio (inhibitor/DMSO) [5]?
A: The remaining activity ratio (inhibitor/DMSO) was 1.12 (inactive).

Q: What about the remaining activity ratio (inhibitor/DMSO) [6] of the same molecule?
A: The remaining activity ratio (inhibitor/DMSO) was 0.25.

Q: What about the remaining activity ratio (inhibitor/DMSO) [7] of the same molecule?
A: Its remaining activity ratio (inhibitor/DMSO) is 1.23 (inactive).

Q: And the remaining activity ratio (inhibitor/DMSO) [8]?
A: Its remaining activity ratio (inhibitor/DMSO) is 1.29 (inactive).

Q: What about the remaining activity ratio (inhibitor/DMSO) [9] of the same molecule?
A: The remaining activity ratio (inhibitor/DMSO) was 1.17 (inactive).

Q: And the remaining activity ratio (inhibitor/DMSO) [10]?
A: The remaining activity ratio (inhibitor/DMSO) was 1.17 (inactive).

Q: What about the remaining activity ratio (inhibitor/DMSO) [11] of the same molecule?
A: Its remaining activity ratio (inhibitor/DMSO) is 1.15 (inactive).

Q: And the remaining activity ratio (inhibitor/DMSO) [12]?
A: Its remaining activity ratio (inhibitor/DMSO) is 1.23 (inactive).

Q: And the remaining activity ratio (inhibitor/DMSO) [13]?
A: The remaining activity ratio (inhibitor/DMSO) was 0.94 (inactive).

Q: What about the remaining activity ratio (inhibitor/DMSO) [14] of the same molecule?
A: Its remaining activity ratio (inhibitor/DMSO) is 1.44 (inactive).

Q: And the remaining activity ratio (inhibitor/DMSO) [15]?
A: The remaining activity ratio (inhibitor/DMSO) was 1.27 (inactive).

Q: What about the remaining activity ratio (inhibitor/DMSO) [16] of the same molecule?
A: The remaining activity ratio (inhibitor/DMSO) was 1.05 (inactive).

Q: What about the remaining activity ratio (inhibitor/DMSO) [17] of the same molecule?
A: The remaining activity ratio (inhibitor/DMSO) was 1.13 (inactive).

Q: What about the remaining activity ratio (inhibitor/DMSO) [18] of the same molecule?
A: Its remaining activity ratio (inhibitor/DMSO) is 1.1 (inactive).
